We go through three molecules from patent publication US9718804B2, “GSK-3 inhibitors” (BRISTOL-MYERS SQUIBB COMPANY, priority 2013, dated 2017).

One test addresses GSK3β (Homo sapiens, UniProt P49841). Put plainly: GSK3β kinase assay (Caliper LabChip, fluoresceinated peptide substrate). It counts as biochemical. The conditions noted are these: first value of the cell; 250 pM enzyme, 20 uM ATP, 20 hours at room temperature; read-out: GSK3β/α (nM): GSK3β IC50. An outline of the steps:
(§1)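 Eleven-point compound titrations (10 mM DMSO stocks) incubated with kinase and fluorescent peptide for 20 h at room temperature before EDTA quench. Substrate-to-product conversion measured by microfluidic mobility shift; IC50 from non-linear fitting.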

The target of another test is GSK3α (Homo sapiens, UniProt P49840). Briefly: GSK3α kinase assay (Caliper LabChip, fluoresceinated peptide substrate). It counts as biochemical. The procedure, abridged:
as §1

In a further test the test system is pTau. Briefly: pTau assay (no method described). It counts as cell-based.

Sequence of GSK3β (P49841 whole entry, species assumed): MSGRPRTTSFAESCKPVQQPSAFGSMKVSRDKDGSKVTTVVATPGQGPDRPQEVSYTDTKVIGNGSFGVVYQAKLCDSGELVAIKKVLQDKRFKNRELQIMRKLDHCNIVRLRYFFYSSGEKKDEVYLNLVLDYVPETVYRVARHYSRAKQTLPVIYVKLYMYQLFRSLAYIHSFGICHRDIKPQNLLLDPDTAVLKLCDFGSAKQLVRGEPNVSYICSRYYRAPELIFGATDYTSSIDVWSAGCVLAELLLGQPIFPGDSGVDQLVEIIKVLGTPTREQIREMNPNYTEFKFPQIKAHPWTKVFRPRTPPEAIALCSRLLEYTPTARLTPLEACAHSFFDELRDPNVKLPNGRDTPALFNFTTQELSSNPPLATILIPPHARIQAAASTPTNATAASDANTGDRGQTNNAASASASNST
Sequence of GSK3α (P49840 whole entry, species assumed): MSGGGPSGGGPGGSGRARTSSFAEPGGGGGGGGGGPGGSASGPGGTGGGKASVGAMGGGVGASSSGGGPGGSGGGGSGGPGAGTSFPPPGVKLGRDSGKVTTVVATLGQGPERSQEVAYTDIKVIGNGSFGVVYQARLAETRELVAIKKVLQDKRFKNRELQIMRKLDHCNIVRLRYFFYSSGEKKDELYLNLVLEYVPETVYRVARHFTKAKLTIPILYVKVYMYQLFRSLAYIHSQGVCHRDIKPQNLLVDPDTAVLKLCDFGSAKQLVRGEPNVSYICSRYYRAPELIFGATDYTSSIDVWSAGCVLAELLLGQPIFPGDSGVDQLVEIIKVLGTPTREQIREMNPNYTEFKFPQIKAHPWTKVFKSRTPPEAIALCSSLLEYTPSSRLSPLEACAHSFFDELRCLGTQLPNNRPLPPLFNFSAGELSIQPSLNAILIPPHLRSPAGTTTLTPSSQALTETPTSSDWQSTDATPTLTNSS

`CC(O)c1c(NC(=O)c2ccnc(Nc3ccc(C(F)(F)F)cn3)c2)cnn1C` (stereo not drawn) [Example 208, N-(5-(1-Hydroxyethyl)-1-methyl-1H-pyrazol-4-yl)-2-((5-(trifluoromethyl)pyridin-2-yl)amino)isonicotinamide]: the IC50 at GSK3β was found to be 3 nM; at GSK3α it was 3.6 nM; in the test on pTau, 120 nM.

As to `Cn1ncc(NC(=O)c2ccnc(Nc3ccc(C(F)(F)F)cn3)c2)c1C(C)(O)C1CC1` (stereo not drawn) [Example 209, N-(5-(1-Cyclopropyl-1-hydroxyethyl)-1-methyl-1H-pyrazol-4-yl)-2-((5-(trifluoromethyl)pyridin-2-yl)amino)isonicotinamide], the values for the IC50 at GSK3β, on GSK3α and with pTau were 0.3 nM, 0.21 nM and 21 nM, respectively.

Consider `O=C(Nc1cnc2cccnn12)c1ccnc(Nc2ccc(C(F)(F)F)cn2)c1` [Example 210, N-(Imidazo[1,2-b]pyridazin-3-yl)-2-((5-(trifluoromethyl)pyridin-2-yl)amino)isonicotinamide], for which the IC50 on GSK3β is 33 nM; against GSK3α, 11 nM; in the test on pTau, 2300 nM.
